Data taken from US10954269B2, “Anti-inflammatory tripeptides” (Dr. August Wolff Gmbh & Co. KG Arzneimittel, priority 2013, dated 2021).
[ ]: non-standard residue; d: D form.

Test system: human keratinocyte cell line (HaCaT)
Assay: Cytokine secretion on protein level in activated human keratinocyte cell line HaCaT (13-plex FACS / Luminex, supernatant)
Assay type: cell-based
Method in brief: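 Stimulus: PMA/Ionomycin or IFN-γ, 48 h; cells: HaCaT or human peripheral-blood T-cells; tripeptide treatment; readout: supernatant cytokines via 13-plex FACS or Luminex, 48–72 h post-stimulation.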

[1] = HaCaT stimulated with IFN-γ, 10^−9M
[2] = HaCaT stimulated with IFN-γ, 10^−9M, excluded from the final assessment
[3] = HaCaT stimulated with IFN-γ, substance 10^−9M
[4] = HaCaT stimulated with PBS, 10^−9M
[5] = HaCaT stimulated with PBS, 10^−9M, excluded from the final assessment
[6] = HaCaT stimulated with PBS, substance 10^−9M
[7] = HaCaT stimulated with PMA/Ionomycin, 10^−9M
[8] = HaCaT stimulated with PMA/Ionomycin, 10^−9M, excluded from the final assessment
[9] = HaCaT stimulated with PMA/Ionomycin, substance 10^−9M

Q: “H-Lys-[dP]-Thr-OH [K(D)PT, reference compound]” was tested. Which IL-1 cytokine concentration [1] did it give?
A: 257.77 pg/mL

Q: And the IL-2 cytokine concentration [1]?
A: 129.65 pg/mL

Q: What about the IL-4 cytokine concentration [1] of the same substance?
A: 84.61 pg/mL

Q: What about the IL-5 cytokine concentration [1] of the same substance?
A: 166.92 pg/mL

Q: And the IL-6 cytokine concentration [1]?
A: 728.31 pg/mL

Q: What about the IL-9 cytokine concentration [1] of the same substance?
A: 83.09 pg/mL

Q: What about the IL-10 cytokine concentration [1] of the same substance?
A: 73.19 pg/mL

Q: And the IL-13 cytokine concentration [1]?
A: 59.62 pg/mL

Q: And the IL-17 cytokine concentration [1]?
A: 664.43 pg/mL

Q: And the TNF-α cytokine concentration [1]?
A: 100.07 pg/mL

Q: And the IL-12p70 cytokine concentration [2]?
A: 0 pg/mL

Q: And the IL-22 cytokine concentration [2]?
A: 0 pg/mL

Q: And the IL-1 cytokine concentration [3]?
A: 0 pg/mL

Q: What about the IL-2 cytokine concentration [3] of the same substance?
A: 131.59 pg/mL

Q: What about the IL-4 cytokine concentration [3] of the same substance?
A: 52.4 pg/mL

Q: What about the IL-5 cytokine concentration [3] of the same substance?
A: 0 pg/mL

Q: And the IL-6 cytokine concentration [3]?
A: 238.12 pg/mL

Q: What about the IL-9 cytokine concentration [3] of the same substance?
A: 0 pg/mL

Q: And the IL-10 cytokine concentration [3]?
A: 0 pg/mL

Q: What about the IL-12 cytokine concentration [3] of the same substance?
A: 0 pg/mL

Q: And the IL-12p70 cytokine concentration [3]?
A: 0 pg/mL

Q: What about the IL-13 cytokine concentration [3] of the same substance?
A: 0 pg/mL

Q: And the IL-17 cytokine concentration [3]?
A: 112.82 pg/mL

Q: And the IL-22 cytokine concentration [3]?
A: 0 pg/mL

Q: And the TNF-α cytokine concentration [3]?
A: 50.44 pg/mL

Q: What about the IFN-γ cytokine concentration [4] of the same substance?
A: 395.55 pg/mL

Q: And the IL-1 cytokine concentration [4]?
A: 228.99 pg/mL

Q: What about the IL-2 cytokine concentration [4] of the same substance?
A: 201.9 pg/mL

Q: What about the IL-4 cytokine concentration [4] of the same substance?
A: 85.48 pg/mL

Q: And the IL-5 cytokine concentration [4]?
A: 201.01 pg/mL

Q: What about the IL-6 cytokine concentration [4] of the same substance?
A: 72.95 pg/mL

Q: And the IL-9 cytokine concentration [4]?
A: 132.74 pg/mL

Q: What about the IL-10 cytokine concentration [4] of the same substance?
A: 125.52 pg/mL

Q: What about the IL-13 cytokine concentration [4] of the same substance?
A: 60.72 pg/mL

Q: What about the IL-17 cytokine concentration [4] of the same substance?
A: 618.22 pg/mL

Q: And the TNF-α cytokine concentration [4]?
A: 90.41 pg/mL

Q: What about the IL-12p70 cytokine concentration [5] of the same substance?
A: 0 pg/mL

Q: And the IL-22 cytokine concentration [5]?
A: 10982.2 pg/mL

Q: And the IFN-γ cytokine concentration [6]?
A: 99.65 pg/mL

Q: What about the IL-1 cytokine concentration [6] of the same substance?
A: 65.11 pg/mL

Q: What about the IL-2 cytokine concentration [6] of the same substance?
A: 0 pg/mL

Q: And the IL-4 cytokine concentration [6]?
A: 144.86 pg/mL

Q: What about the IL-5 cytokine concentration [6] of the same substance?
A: 0 pg/mL

Q: What about the IL-6 cytokine concentration [6] of the same substance?
A: 78.34 pg/mL

Q: And the IL-9 cytokine concentration [6]?
A: 5.27 pg/mL

Q: What about the IL-10 cytokine concentration [6] of the same substance?
A: 31.43 pg/mL

Q: And the IL-12 cytokine concentration [6]?
A: 0 pg/mL

Q: And the IL-12p70 cytokine concentration [6]?
A: 0 pg/mL

Q: What about the IL-13 cytokine concentration [6] of the same substance?
A: 0 pg/mL

Q: What about the IL-17 cytokine concentration [6] of the same substance?
A: 0 pg/mL

Q: And the IL-22 cytokine concentration [6]?
A: 0 pg/mL

Q: And the TNF-α cytokine concentration [6]?
A: 9.34 pg/mL

Q: What about the IFN-γ cytokine concentration [7] of the same substance?
A: 736.13 pg/mL

Q: And the IL-1 cytokine concentration [7]?
A: 212.49 pg/mL

Q: What about the IL-2 cytokine concentration [7] of the same substance?
A: 179.25 pg/mL

Q: And the IL-4 cytokine concentration [7]?
A: 70.92 pg/mL

Q: And the IL-5 cytokine concentration [7]?
A: 157.36 pg/mL

Q: And the IL-6 cytokine concentration [7]?
A: 130.87 pg/mL

Q: What about the IL-9 cytokine concentration [7] of the same substance?
A: 147.79 pg/mL

Q: And the IL-10 cytokine concentration [7]?
A: 84.32 pg/mL

Q: What about the IL-13 cytokine concentration [7] of the same substance?
A: 62.95 pg/mL

Q: What about the IL-17 cytokine concentration [7] of the same substance?
A: 487.56 pg/mL

Q: What about the TNF-α cytokine concentration [7] of the same substance?
A: 116.88 pg/mL

Q: What about the IL-12p70 cytokine concentration [8] of the same substance?
A: 0 pg/mL

Q: And the IL-22 cytokine concentration [8]?
A: 10698.1 pg/mL

Q: And the IFN-γ cytokine concentration [9]?
A: 0 pg/mL

Q: And the IL-1 cytokine concentration [9]?
A: 0 pg/mL

Q: And the IL-2 cytokine concentration [9]?
A: 0 pg/mL

Q: And the IL-4 cytokine concentration [9]?
A: 129.6 pg/mL

Q: What about the IL-5 cytokine concentration [9] of the same substance?
A: 0 pg/mL

Q: What about the IL-6 cytokine concentration [9] of the same substance?
A: 282.85 pg/mL

Q: And the IL-9 cytokine concentration [9]?
A: 0 pg/mL

Q: And the IL-10 cytokine concentration [9]?
A: 118.77 pg/mL

Q: What about the IL-12 cytokine concentration [9] of the same substance?
A: 0 pg/mL

Q: And the IL-12p70 cytokine concentration [9]?
A: 0 pg/mL

Q: And the IL-13 cytokine concentration [9]?
A: 0 pg/mL

Q: What about the IL-17 cytokine concentration [9] of the same substance?
A: 0 pg/mL

Q: What about the IL-22 cytokine concentration [9] of the same substance?
A: 0 pg/mL

Q: What about the TNF-α cytokine concentration [9] of the same substance?
A: 0 pg/mL

Q: “alpha-melanocyte-stimulating hormone [α-MSH, reference compound]” was tested. Which IL-1 cytokine concentration [1] did it give?
A: 238.96 pg/mL

Q: And the IL-2 cytokine concentration [1]?
A: 119.87 pg/mL

Q: And the IL-4 cytokine concentration [1]?
A: 70.08 pg/mL

Q: And the IL-5 cytokine concentration [1]?
A: 184.1 pg/mL

Q: And the IL-6 cytokine concentration [1]?
A: 750.84 pg/mL

Q: What about the IL-9 cytokine concentration [1] of the same substance?
A: 83.5 pg/mL

Q: And the IL-10 cytokine concentration [1]?
A: 82.71 pg/mL

Q: And the IL-13 cytokine concentration [1]?
A: 55.34 pg/mL

Q: And the IL-17 cytokine concentration [1]?
A: 598.13 pg/mL

Q: What about the TNF-α cytokine concentration [1] of the same substance?
A: 67.75 pg/mL

Q: What about the IL-12p70 cytokine concentration [2] of the same substance?
A: 0 pg/mL

Q: And the IL-22 cytokine concentration [2]?
A: 0 pg/mL

Q: What about the IL-1 cytokine concentration [3] of the same substance?
A: 0 pg/mL

Q: What about the IL-2 cytokine concentration [3] of the same substance?
A: 0 pg/mL

Q: What about the IL-4 cytokine concentration [3] of the same substance?
A: 0 pg/mL

Q: And the IL-5 cytokine concentration [3]?
A: 0 pg/mL

Q: What about the IL-6 cytokine concentration [3] of the same substance?
A: 202.37 pg/mL

Q: What about the IL-9 cytokine concentration [3] of the same substance?
A: 0 pg/mL

Q: And the IL-10 cytokine concentration [3]?
A: 0 pg/mL

Q: What about the IL-12 cytokine concentration [3] of the same substance?
A: 0 pg/mL

Q: And the IL-12p70 cytokine concentration [3]?
A: 0 pg/mL

Q: And the IL-13 cytokine concentration [3]?
A: 0 pg/mL

Q: What about the IL-17 cytokine concentration [3] of the same substance?
A: 95.44 pg/mL

Q: And the IL-22 cytokine concentration [3]?
A: 0 pg/mL

Q: What about the TNF-α cytokine concentration [3] of the same substance?
A: 45.91 pg/mL

Q: And the IFN-γ cytokine concentration [4]?
A: 365.47 pg/mL

Q: And the IL-1 cytokine concentration [4]?
A: 271.66 pg/mL

Q: What about the IL-2 cytokine concentration [4] of the same substance?
A: 251.78 pg/mL

Q: And the IL-4 cytokine concentration [4]?
A: 56.84 pg/mL

Q: And the IL-5 cytokine concentration [4]?
A: 150.8 pg/mL

Q: What about the IL-6 cytokine concentration [4] of the same substance?
A: 76.75 pg/mL

Q: And the IL-9 cytokine concentration [4]?
A: 124.69 pg/mL

Q: What about the IL-10 cytokine concentration [4] of the same substance?
A: 107.72 pg/mL

Q: And the IL-13 cytokine concentration [4]?
A: 65.47 pg/mL

Q: What about the IL-17 cytokine concentration [4] of the same substance?
A: 544.96 pg/mL

Q: And the TNF-α cytokine concentration [4]?
A: 97.16 pg/mL

Q: And the IL-12p70 cytokine concentration [5]?
A: 0 pg/mL

Q: And the IL-22 cytokine concentration [5]?
A: 9847.56 pg/mL

Q: And the IFN-γ cytokine concentration [6]?
A: 0 pg/mL

Q: And the IL-1 cytokine concentration [6]?
A: 0 pg/mL

Q: What about the IL-2 cytokine concentration [6] of the same substance?
A: 0 pg/mL

Q: What about the IL-4 cytokine concentration [6] of the same substance?
A: 118.52 pg/mL

Q: What about the IL-5 cytokine concentration [6] of the same substance?
A: 0 pg/mL

Q: And the IL-6 cytokine concentration [6]?
A: 15.22 pg/mL

Q: And the IL-9 cytokine concentration [6]?
A: 9.51 pg/mL

Q: And the IL-10 cytokine concentration [6]?
A: 39.54 pg/mL

Q: And the IL-12 cytokine concentration [6]?
A: 0 pg/mL

Q: What about the IL-12p70 cytokine concentration [6] of the same substance?
A: 0 pg/mL

Q: What about the IL-13 cytokine concentration [6] of the same substance?
A: 0 pg/mL

Q: What about the IL-17 cytokine concentration [6] of the same substance?
A: 0 pg/mL

Q: What about the IL-22 cytokine concentration [6] of the same substance?
A: 0 pg/mL

Q: And the TNF-α cytokine concentration [6]?
A: 0 pg/mL

Q: What about the IFN-γ cytokine concentration [7] of the same substance?
A: 617.26 pg/mL

Q: And the IL-1 cytokine concentration [7]?
A: 143.16 pg/mL

Q: What about the IL-2 cytokine concentration [7] of the same substance?
A: 98.72 pg/mL

Q: And the IL-4 cytokine concentration [7]?
A: 72.6 pg/mL

Q: And the IL-5 cytokine concentration [7]?
A: 131.91 pg/mL

Q: And the IL-6 cytokine concentration [7]?
A: 113.54 pg/mL

Q: And the IL-9 cytokine concentration [7]?
A: 105.55 pg/mL

Q: And the IL-10 cytokine concentration [7]?
A: 111.19 pg/mL

Q: And the IL-13 cytokine concentration [7]?
A: 55.34 pg/mL

Q: And the IL-17 cytokine concentration [7]?
A: 338.9 pg/mL

Q: What about the TNF-α cytokine concentration [7] of the same substance?
A: 103.98 pg/mL

Q: And the IL-12p70 cytokine concentration [8]?
A: 0 pg/mL

Q: And the IL-22 cytokine concentration [8]?
A: 9995.76 pg/mL

Q: And the IFN-γ cytokine concentration [9]?
A: 0 pg/mL

Q: And the IL-1 cytokine concentration [9]?
A: 0 pg/mL

Q: What about the IL-2 cytokine concentration [9] of the same substance?
A: 0 pg/mL

Q: What about the IL-4 cytokine concentration [9] of the same substance?
A: 113.12 pg/mL

Q: And the IL-5 cytokine concentration [9]?
A: 0 pg/mL

Q: And the IL-6 cytokine concentration [9]?
A: 179.03 pg/mL

Q: What about the IL-9 cytokine concentration [9] of the same substance?
A: 0 pg/mL

Q: And the IL-10 cytokine concentration [9]?
A: 93.2 pg/mL

Q: And the IL-12 cytokine concentration [9]?
A: 0 pg/mL

Q: What about the IL-12p70 cytokine concentration [9] of the same substance?
A: 0 pg/mL

Q: What about the IL-13 cytokine concentration [9] of the same substance?
A: 0 pg/mL

Q: What about the IL-17 cytokine concentration [9] of the same substance?
A: 0 pg/mL

Q: And the IL-22 cytokine concentration [9]?
A: 0 pg/mL

Q: And the TNF-α cytokine concentration [9]?
A: 0 pg/mL
